How the values were obtained:
Assay type in all cases: biochemical
[1] = target: T1, MMP-7 of the mouse (Mus musculus, UniProt Q10738); assay: In vitro MMP-7 inhibition test of the mouse
T1 construct: purchased R&D Systems 2967-MP
T1 sequence (Q10738 95-264): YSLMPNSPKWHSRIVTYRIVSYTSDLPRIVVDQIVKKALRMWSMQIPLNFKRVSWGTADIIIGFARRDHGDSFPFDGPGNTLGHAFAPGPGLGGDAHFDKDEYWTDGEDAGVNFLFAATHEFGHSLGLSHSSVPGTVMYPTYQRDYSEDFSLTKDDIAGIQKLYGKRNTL
Excerpt: (§1) The activity strength of the compounds according to the invention towards other MMPs (and therefore their selectivity) is likewise ascertained in in vitro inhibition tests. The MMP-mediated amidolytic cleavage of a suitable peptide substrate also leads here to a fluorescent light increase. The signal intensity of the fluorescent light is directly proportional to the enzyme activity. The active concentration of a test compound at which half of the enzyme is inhibited (50% signal intensity of the fluorescent light) is given as IC50 value.
(§2) Recombinant MMP-7 of the mouse (R&D Systems, 2967-MP) is chemically activated in accordance with the manufacturer's instructions using APMA. 1 μl of the test compound to be analysed (as a solution in DMSO, suitable concentrations e.g. 1 nM to 30 μM) is pipetted into 24 μl of activated enzyme (final concentration e.g. 0.5 nM) in reaction buffer (50 mM Tris/HCl pH 7.5, 10 mM CaCl2, 150 mM NaCl, 0.05% Brij®-35) in a white 384-hole microtiter plate (MTP). The enzymatic reaction is started by adding the intramolecularly quenched substrate Mca-Lys-Pro-Leu-Gly-Leu-Dpa(Dnp)-Ala-Arg-NH2 (final concentration e.g. 5 μM; R&D Systems, ES-010), such that a total test volume of 50 μl results. The progress of the MMP-7 reaction is measured by measuring the fluorescence intensity (excitation 320 nm, emission 410 nm) over a suitable period (e.g. over 120 min at a temperature of 32° C.).
Tables 3A and 3B below give the IC50 values from these tests for the inhibition of rodent MMPs for representative embodiment examples of the present invention and also for two structurally related comparison compounds from the prior art (as racemate and separated enantiomer)→(in part as average values from several independent individual determinations and rounded to two significant places). The IC50 values were determined for racemates and enantiomers from differently generated DMSO stock solutions. Whereas an automatically created DMSO stock solution from the internal substance logistics was used for racemates by means of a standard method, in the case of enantiomers, in each case a freshly produced, manually prepared DMSO stock solution was used for a more precise direct comparison of the enantiomers with one another.

[2] = target: T2, MMP-7 (Homo sapiens, UniProt P09237); assay: In vitro MMP-7 inhibition test
T2 construct: purchased R&D Systems 907-MP
T2 sequence (P09237 95-267): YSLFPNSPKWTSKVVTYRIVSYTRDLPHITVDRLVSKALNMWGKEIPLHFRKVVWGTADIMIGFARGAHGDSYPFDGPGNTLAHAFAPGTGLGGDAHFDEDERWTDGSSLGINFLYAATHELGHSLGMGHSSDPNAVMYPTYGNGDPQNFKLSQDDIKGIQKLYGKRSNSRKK
Excerpt: as §1
as §2, with “MMP-7” for “MMP-7 of the mouse”, “Systems, 907-MP)” for “Systems, 2967-MP)”, “is pipette” for “is pipetted”, “substrate Mca-Pro-Leu-Gly-Leu-Dpa(Dnp)-Ala-Arg-NH2” for “substrate Mca-Lys-Pro-Leu-Gly-Leu-Dpa(Dnp)-Ala-Arg-NH2”, “e.g. 10” for “e.g. 5”, “Systems, ES-001),” for “Systems, ES-010),”
(§3) The IC50 values were determined for racemates and enantiomers from differently generated DMSO stock solutions. Whereas an automatically produced DMSO stock solution from the internal substance logistics was used for racemates by means of a standard method, in the case of enantiomers a freshly produced, manually prepared DMSO stock solution was used in each case for a more precise direct comparison of the enantiomers with one another.

[3] = target: T3, MMP-8 (Homo sapiens, UniProt P22894); assay: In vitro MMP-8 inhibition test
T3 construct: purchased R&D Systems 908-MP
Excerpt: as §1
Recombinant MMP-8 (R&D Systems, 908-MP) is chemically activated in accordance with the manufacturer's instructions using APMA. 1 μl of the test compound to be analysed (as a solution in DMSO, suitable concentrations e.g. 1 nM to 30 μM) is pipette into 24 μl of activated enzyme (final concentration e.g. 0.5 nM) in reaction buffer (50 mM Tris/HCl pH 7.5, 10 mM CaCl2, 150 mM NaCl, 0.05% Brij®-35) in a white 384-hole microtiter plate (MTP). The enzymatic reaction is started by adding the intramolecularly quenched substrate Mca-Pro-Leu-Gly-Leu-Dpa(Dnp)-Ala-Arg-NH2 (final concentration e.g. 10 μM; R&D Systems, ES-001), such that a total test volume of 50 μl results. The progress of the MMP-8 reaction is measured by measuring the fluorescence intensity (excitation 320 nm, emission 410 nm) over a suitable period (e.g. over 120 min at a temperature of 32° C.).
as §3

[4] = target: T4, MMP-3 (Homo sapiens, UniProt P08254); assay: In vitro MMP-3 inhibition test
T4 construct: purchased R&D Systems 513-MP
Excerpt: as §1
Recombinant MMP-3 (R&D Systems, 513-MP) is chemically activated in accordance with the manufacturer's instructions using APMA. 1 μl of the test compound to be analysed (as a solution in DMSO, suitable concentrations e.g. 1 nM to 30 μM) is pipetted into 24 μl of activated enzyme (final concentration e.g. 2 nM) in reaction buffer (50 mM Tris/HCl pH 7.5, 10 mM CaCl2, 150 mM NaCl, 0.05% Brij®-35) in a white 384-hole microtiter plate (MTP). The enzymatic reaction is started by adding the intramolecularly quenched substrate Mca-Arg-Pro-Lys-Pro-Val-Glu-Nval-Trp-Arg-Lys(Dnp)-NH2 (final concentration e.g. 10 μM; R&D Systems, ES-002), such that a total test volume of 50 μl results. The progress of the MMP-3 reaction is measured by measuring the fluorescence intensity (excitation 320 nm, emission 410 nm) over a suitable period (e.g. over 120 min at a temperature of 32° C.).
as §3

T4 sequence (P08254 100-477): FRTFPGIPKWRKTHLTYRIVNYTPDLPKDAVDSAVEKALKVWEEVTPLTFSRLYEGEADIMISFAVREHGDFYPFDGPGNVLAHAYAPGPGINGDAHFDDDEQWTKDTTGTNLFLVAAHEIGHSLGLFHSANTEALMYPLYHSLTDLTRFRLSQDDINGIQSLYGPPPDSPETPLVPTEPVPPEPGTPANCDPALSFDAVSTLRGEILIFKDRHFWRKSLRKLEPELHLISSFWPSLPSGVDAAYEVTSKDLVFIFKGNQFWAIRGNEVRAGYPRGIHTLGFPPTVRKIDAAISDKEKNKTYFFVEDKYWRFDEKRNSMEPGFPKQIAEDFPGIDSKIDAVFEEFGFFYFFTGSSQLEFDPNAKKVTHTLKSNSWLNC
T3 sequence (P22894 101-467): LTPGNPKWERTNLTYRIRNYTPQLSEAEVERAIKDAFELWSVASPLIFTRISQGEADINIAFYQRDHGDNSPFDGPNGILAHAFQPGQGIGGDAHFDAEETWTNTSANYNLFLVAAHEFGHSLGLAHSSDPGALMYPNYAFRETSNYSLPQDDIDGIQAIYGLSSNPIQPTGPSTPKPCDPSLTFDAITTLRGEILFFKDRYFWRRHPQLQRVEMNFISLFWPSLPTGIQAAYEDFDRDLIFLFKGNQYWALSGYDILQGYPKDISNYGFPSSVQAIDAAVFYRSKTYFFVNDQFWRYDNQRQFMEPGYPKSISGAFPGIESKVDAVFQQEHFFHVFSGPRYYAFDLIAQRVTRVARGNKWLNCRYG

SMILES	IC50 [1]	IC50 [2]	IC50 [3]	IC50 [4]
CCCCCOc1ccc(C(=O)CC(CCn2nnc3ccccc3c2=O)C(=O)O)cc1 (racemic) [Comparative Example B-1, (+/−)-4-Oxo-2-[2-(4-oxo-1,2,3-benzotriazin-3(4H)-yl)ethyl]-4-[4-(pentyloxy)phenyl]butanoic acid (racemate)]	1400 nM	> 40000 nM	706 nM	9150 nM
O=C(O)[C@H]1[C@H](Cn2nnc3ccccc3c2=O)CC[C@@H]1C(=O)c1ccc(OCc2ccccc2)cc1 (racemic) [Example 1, (+/−)-(1RS,2RS,5SR)-2-[4-(Benzyloxy)benzoyl]-5-[(4-oxo-1,2,3-benzotriazin-3(4H)-yl)methyl]cyclopentanecarboxylic acid (racemate)]	46 nM	500 nM	9.2 nM	390 nM
CCCCCOc1ccc(C(=O)CC(CCn2nnc3ccccc3c2=O)C(=O)O)cc1 (single isomer, unassigned; enantiomer 1) [Comparative Example B-2, (+)-4-Oxo-2-[2-(4-oxo-1,2,3-benzotriazin-3(4H)-yl)ethyl]-4-[4-(pentyloxy)phenyl]butanoic acid (enantiomer 1)]	525 nM	22500 nM	275 nM	6600 nM

More lines, in order of falling IC50 [1], values ahead:

IC50 [1]	IC50 [2]	IC50 [3]	IC50 [4]	SMILES
22 nM	420 nM	10.1 nM	175 nM	O=C(O)[C@H]1[C@H](Cn2nnc3ccccc3c2=O)CC[C@@H]1C(=O)c1ccc(OCc2ccccc2)cc1 [Example 2, (+)-(1S,2S,5R)-2-[4-(Benzyloxy)benzoyl]-5-[(4-oxo-1,2,3-benzotriazin-3(4H)-yl)methyl]cyclopentanecarboxylic acid]
15 nM	310 nM	< 0.61 nM	49 nM	O=C(O)[C@H]1[C@H](Cn2nnc3ccccc3c2=O)CC[C@@H]1C(=O)c1ccc(-c2ccc(Cl)cc2)cc1 (racemic) [Comparative Example A-1, (1RS,2RS,5SR)-2-[(4′-chlorobiphenyl-4-yl)carbonyl]-5-[(4-oxo-1,2,3-benzotriazin-3(4H)-yl)methyl]cyclopentanecarboxylic acid (racemate)]
6.2 nM	145 nM	< 0.61 nM	22.5 nM	O=C(O)[C@@H]1[C@@H](Cn2nnc3ccccc3c2=O)CC[C@H]1C(=O)c1ccc(-c2ccc(Cl)cc2)cc1 (single isomer, unassigned; enantiomer 2) [Comparative Example A-3, (1RS,2RS,5SR)-2-[(4′-Chlorobiphenyl-4-yl)carbonyl]-5-[(4-oxo-1,2,3-benzotriazin-3(4H)-yl)methyl]cyclopentanecarboxylic acid (enantiomer 2)]
